# Measurements taken from patent US6005116A, “Isoxazole compounds useful for the prophylaxis or treatment of nervous diseases” (Sankyo Company, Limited, priority 1996, dated 1999).
# Where a name gives a salt, the structure may show the parent alone.
# Target: T1, Type A-monoamine oxidase (Mus musculus, UniProt Q64133)
# T1 sequence (Q64133 1-526): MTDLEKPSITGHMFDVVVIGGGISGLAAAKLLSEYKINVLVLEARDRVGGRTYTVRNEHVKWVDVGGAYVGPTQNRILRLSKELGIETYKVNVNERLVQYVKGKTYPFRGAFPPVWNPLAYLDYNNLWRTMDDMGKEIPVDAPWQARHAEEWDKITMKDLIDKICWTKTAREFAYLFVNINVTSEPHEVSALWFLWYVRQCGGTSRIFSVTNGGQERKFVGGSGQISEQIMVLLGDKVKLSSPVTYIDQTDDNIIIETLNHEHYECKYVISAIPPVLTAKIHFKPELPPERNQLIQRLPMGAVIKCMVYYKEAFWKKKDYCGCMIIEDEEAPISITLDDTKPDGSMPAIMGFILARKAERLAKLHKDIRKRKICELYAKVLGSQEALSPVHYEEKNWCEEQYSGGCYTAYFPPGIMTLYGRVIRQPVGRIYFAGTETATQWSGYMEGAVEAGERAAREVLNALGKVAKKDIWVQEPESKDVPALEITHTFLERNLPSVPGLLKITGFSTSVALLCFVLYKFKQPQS
# Experiment: Type A-monoamine oxidase inhibitory activity
# Assay type: biochemical
# Conditions: not given
row,SMILES,IC50
1,"CC(C)c1c(OCCN)noc1-c1ccc(Cl)cc1Cl [Example 57, 3-(2-Aminoethoxy)-5-(2,4-dichlorophenyl)-4-isopropylisoxazole hydrochloride]",< 28 nM

# Same assay, conditions: mouse brain crude mitochondria; substrate 14C-5-HT 100 μM; preincubated at 38° C. for 20 minutes; phosphate buffer pH 7.4; read-out: IC50 (concentration of the compound which decreases the 14C radioactivity of the control by 50%)
row,SMILES,IC50
1,"NCCOc1cc(-c2ccccc2)on1 [Example 1, 3-(2-Aminoethoxy)-5-phenylisoxazole hydrochloride]",< 28 nM
2,"NCCOc1noc(-c2ccccc2)c1Cl [Example 2, 3-(2-Aminoethoxy)-4-chloro-5-phenylisoxazole hydrochloride]",< 28 nM
3,"NCCOc1cc(-c2ccc(Cl)cc2)on1 [Example 3, 3-(2-Aminoethoxy)-5-(4-chlorophenyl)isoxazole hydrochloride]",< 28 nM
4,"CC(C)c1c(OCCN)noc1-c1ccccc1 [Example 4, 3-(2-Aminoethoxy)-4-isopropyl-5-phenylisoxazole hydrochloride]",< 28 nM
5,"NCCOc1cc(-c2cccs2)on1 [Example 5, 3-(2-Aminoethoxy)-5-(2-thienyl)isoxazole hydrochloride]",< 28 nM
6,"NCCOc1noc(-c2cccs2)c1Cl [Example 6, 3-(2-Aminoethoxy)-4-chloro-5-(2-thienyl)isoxazole hydrochloride]",< 28 nM
7,"NCCOc1cc(-c2cccnc2)on1 [Example 7, 3-(2-Aminoethoxy)-5-(3-pyridyl)isoxazole hydrochloride]",< 28 nM
8,"NCCOc1noc(-c2cccnc2)c1Cl [Example 8, 3-(2-Aminoethoxy)-4-chloro-5-(3-pyridyl)isoxazole hydrochloride]",< 28 nM
9,"CC(C)c1c(OCCN)noc1-c1ccco1 [Example 54, 3-(2-Aminoethoxy-5-(2-furyl)-4-isopropylisoxazole hydrochloride]",< 28 nM
10,"CC(C)c1c(OCCN)noc1-c1ccccc1Cl [Example 58, 3-(2-Aminoethoxy)-5-(2-chlorophenyl)-4-isopropylisoxazole hydrochloride]",< 28 nM
11,"CC(C)c1c(OCCN)noc1-c1ccc(Cl)cc1 [Example 59, 3-(2-Aminoethoxy)-5-(4-chlorophenyl)-4-isopropylisoxazole hydrochloride]",< 28 nM
12,"C=CCc1c(OCCN)noc1-c1ccccc1 [Example 60, 4-Allyl-3-(2-aminoethoxy)-5-phenylisoxazole hydrochloride]",< 28 nM
13,"CC(C)Cc1c(OCCN)noc1-c1ccccc1 [Example 62, 3-(2-Aminoethoxy)-4-isobutyl-5-phenylisoxazole hydrochloride]",< 28 nM
14,"CC(C)c1c(OCCN)noc1-c1cccs1 [Example 67, 3-(2-Aminoethoxy)-4-isopropyl-5-(2-thienyl)isoxazole hydrochloride]",< 28 nM
